From ChEMBL document CHEMBL3576831, “Discovery of a Selective TRPM8 Antagonist with Clinical Efficacy in Cold-Related Pain” (ACS Med Chem Lett, 2015)
Active and inactive are the calls of the source. The calls are words filed in the database; no cut-off is given here.

Tests used:
[1] = molecular target: T1, Transient receptor potential cation channel subfamily M member 8 (Homo sapiens, UniProt Q7Z2W7); experiment: Antagonist activity against human recombinant TRPM8 expressed in CHO T-rex cells assessed as inhibition of WS12-induced calcium response pre-incubated for 20 mins before WS12 addition; format: cell-based
T1 sequence (Q7Z2W7 whole entry): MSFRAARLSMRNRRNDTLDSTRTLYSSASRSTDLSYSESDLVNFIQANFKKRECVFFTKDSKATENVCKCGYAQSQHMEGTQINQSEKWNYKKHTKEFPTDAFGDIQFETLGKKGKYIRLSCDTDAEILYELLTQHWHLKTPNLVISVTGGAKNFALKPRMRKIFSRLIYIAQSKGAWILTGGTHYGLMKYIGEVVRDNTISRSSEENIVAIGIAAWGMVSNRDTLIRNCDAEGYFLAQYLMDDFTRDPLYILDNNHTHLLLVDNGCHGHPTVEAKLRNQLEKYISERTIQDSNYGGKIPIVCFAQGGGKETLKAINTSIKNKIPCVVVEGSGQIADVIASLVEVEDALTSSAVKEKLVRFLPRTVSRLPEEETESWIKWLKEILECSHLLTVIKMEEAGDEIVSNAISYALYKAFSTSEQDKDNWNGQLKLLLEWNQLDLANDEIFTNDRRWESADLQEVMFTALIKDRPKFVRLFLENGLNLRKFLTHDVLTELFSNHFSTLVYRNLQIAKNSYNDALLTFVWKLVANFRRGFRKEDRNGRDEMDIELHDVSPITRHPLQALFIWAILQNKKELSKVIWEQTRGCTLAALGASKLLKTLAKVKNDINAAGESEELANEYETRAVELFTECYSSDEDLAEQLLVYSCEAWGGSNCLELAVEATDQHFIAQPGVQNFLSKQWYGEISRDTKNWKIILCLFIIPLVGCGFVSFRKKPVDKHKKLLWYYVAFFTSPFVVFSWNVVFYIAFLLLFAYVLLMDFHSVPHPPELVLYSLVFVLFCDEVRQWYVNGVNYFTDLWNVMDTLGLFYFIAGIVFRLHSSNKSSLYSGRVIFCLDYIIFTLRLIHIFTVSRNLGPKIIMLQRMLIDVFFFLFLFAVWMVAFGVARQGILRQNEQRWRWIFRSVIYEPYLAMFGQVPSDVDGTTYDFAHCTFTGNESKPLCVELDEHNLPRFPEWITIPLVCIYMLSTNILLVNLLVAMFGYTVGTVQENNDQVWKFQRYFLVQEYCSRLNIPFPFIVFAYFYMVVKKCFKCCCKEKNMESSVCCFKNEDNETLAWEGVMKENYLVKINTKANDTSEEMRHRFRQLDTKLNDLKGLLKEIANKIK

[2] = system: Hepatocyte; experiment: Intrinsic clearance in human hepatocytes assessed per million cells; format: ADME, cell-based
[3] = Lipophilicity, log D of the compound; format: physicochemical; conditions: octanol/water
[4] = system: Liver microsome; experiment: Intrinsic clearance in rat liver microsomes; format: ADME
[5] = Intrinsic clearance in human liver microsomes; format: ADME; conditions: read-out: CLH
[6] = molecular target: T2, Voltage-gated inwardly rectifying potassium channel KCNH2 (Homo sapiens, UniProt Q12809); experiment: Inhibition of dofetilide binding to human ERG
T2 sequence (Q12809 whole entry): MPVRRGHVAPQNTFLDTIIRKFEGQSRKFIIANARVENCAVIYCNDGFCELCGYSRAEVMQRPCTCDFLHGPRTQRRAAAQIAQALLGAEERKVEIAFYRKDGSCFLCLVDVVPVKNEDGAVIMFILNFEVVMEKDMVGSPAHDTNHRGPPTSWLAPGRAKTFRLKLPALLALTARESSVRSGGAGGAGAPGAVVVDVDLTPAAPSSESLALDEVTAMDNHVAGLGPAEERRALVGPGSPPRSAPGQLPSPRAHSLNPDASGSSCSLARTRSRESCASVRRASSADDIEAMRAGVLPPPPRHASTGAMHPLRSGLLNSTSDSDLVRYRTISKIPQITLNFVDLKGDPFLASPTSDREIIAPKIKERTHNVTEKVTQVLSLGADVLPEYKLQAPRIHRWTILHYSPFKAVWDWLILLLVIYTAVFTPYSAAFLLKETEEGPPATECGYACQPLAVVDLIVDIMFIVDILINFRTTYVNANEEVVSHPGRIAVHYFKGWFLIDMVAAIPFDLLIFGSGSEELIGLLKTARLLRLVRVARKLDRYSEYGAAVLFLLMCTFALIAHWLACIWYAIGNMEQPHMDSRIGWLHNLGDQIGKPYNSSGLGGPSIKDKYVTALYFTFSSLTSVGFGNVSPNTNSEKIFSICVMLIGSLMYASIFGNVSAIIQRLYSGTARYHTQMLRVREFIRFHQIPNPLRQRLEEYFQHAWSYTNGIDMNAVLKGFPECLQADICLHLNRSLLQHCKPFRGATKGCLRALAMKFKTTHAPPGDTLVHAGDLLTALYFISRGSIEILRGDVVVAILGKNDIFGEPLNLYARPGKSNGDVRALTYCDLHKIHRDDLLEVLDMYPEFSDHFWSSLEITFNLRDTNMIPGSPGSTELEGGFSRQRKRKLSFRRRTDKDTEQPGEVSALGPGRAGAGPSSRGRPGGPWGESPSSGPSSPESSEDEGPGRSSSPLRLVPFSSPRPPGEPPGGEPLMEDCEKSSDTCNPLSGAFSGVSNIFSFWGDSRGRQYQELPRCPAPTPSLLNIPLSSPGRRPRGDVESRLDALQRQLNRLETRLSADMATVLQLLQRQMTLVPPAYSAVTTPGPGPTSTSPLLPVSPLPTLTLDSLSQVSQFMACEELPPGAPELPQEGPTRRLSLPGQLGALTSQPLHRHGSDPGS

[7] = molecular target: CYP3A4 (Homo sapiens, UniProt P08684); experiment: Inhibition of CYP3A4 (unknown origin) at 3 uM; format: ADME
CYP3A4, sequence (P08684 whole entry): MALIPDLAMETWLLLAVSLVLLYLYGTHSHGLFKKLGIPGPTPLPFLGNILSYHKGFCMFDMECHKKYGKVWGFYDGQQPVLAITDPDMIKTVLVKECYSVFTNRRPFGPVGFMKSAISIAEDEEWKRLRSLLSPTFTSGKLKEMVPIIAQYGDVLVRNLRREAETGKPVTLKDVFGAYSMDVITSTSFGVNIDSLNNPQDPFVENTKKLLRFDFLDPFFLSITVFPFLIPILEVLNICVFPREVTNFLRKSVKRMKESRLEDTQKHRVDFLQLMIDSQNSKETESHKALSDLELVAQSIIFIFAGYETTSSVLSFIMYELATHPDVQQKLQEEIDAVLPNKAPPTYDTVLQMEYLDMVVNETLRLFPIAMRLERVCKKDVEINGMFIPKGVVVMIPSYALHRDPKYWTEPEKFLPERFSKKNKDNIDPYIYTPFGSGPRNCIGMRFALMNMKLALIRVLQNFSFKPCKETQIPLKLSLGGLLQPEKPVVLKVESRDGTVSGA

[8] = molecular target: CYP2C9 (Homo sapiens, UniProt P11712); experiment: Inhibition of CYP2C9 (unknown origin) at 3 uM; format: ADME
CYP2C9, sequence (P11712 whole entry): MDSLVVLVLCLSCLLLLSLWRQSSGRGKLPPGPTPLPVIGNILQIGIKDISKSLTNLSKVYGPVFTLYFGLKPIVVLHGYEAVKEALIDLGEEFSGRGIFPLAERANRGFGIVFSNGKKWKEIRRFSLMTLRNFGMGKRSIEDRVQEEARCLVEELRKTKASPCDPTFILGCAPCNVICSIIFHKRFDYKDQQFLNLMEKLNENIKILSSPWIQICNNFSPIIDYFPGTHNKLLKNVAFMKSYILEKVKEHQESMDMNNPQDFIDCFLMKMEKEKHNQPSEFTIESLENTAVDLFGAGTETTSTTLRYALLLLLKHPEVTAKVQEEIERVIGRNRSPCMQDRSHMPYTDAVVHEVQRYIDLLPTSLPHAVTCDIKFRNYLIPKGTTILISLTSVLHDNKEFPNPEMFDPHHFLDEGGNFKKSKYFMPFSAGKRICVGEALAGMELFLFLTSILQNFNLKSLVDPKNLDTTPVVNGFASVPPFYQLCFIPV

[9] = molecular target: CYP2D6 (Homo sapiens, UniProt P10635); experiment: Inhibition of CYP2D6 (unknown origin) at 3 uM; format: ADME
CYP2D6, sequence (P10635 whole entry): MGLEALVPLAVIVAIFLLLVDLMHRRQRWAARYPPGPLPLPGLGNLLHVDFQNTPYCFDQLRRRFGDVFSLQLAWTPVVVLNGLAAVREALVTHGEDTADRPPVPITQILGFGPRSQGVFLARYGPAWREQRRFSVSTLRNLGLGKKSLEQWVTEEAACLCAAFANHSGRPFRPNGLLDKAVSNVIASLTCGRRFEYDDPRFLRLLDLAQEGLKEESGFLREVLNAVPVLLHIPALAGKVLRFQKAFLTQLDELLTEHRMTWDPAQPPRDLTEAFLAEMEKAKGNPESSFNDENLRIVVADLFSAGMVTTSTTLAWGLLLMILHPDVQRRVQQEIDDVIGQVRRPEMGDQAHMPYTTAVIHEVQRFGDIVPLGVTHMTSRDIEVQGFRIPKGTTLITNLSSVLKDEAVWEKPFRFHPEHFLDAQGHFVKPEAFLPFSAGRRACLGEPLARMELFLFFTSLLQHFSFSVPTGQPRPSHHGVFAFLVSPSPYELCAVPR

[10] = molecular target: T3, CYP1A2 (Homo sapiens, UniProt P05177); experiment: Inhibition of CYP1A2 (unknown origin) at 3 uM; format: ADME
T3 sequence (P05177 whole entry): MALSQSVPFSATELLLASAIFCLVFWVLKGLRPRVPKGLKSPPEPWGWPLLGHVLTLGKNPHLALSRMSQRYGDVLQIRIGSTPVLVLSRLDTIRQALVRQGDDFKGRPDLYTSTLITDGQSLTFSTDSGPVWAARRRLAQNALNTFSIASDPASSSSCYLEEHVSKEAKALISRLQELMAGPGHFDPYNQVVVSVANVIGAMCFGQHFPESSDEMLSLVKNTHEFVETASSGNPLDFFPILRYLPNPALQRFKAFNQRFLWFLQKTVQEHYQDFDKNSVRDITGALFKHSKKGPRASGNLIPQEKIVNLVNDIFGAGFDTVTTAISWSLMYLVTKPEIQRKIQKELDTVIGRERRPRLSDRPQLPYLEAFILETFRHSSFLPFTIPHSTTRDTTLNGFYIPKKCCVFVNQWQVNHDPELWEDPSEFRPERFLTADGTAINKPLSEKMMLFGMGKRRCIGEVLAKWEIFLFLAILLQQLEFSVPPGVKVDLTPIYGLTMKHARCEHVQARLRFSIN

[11] = molecular target: T4, CYP2C8 (Homo sapiens, UniProt P10632); experiment: Inhibition of CYP2C8 (unknown origin) at 3 uM; format: ADME
T4 sequence (P10632 whole entry): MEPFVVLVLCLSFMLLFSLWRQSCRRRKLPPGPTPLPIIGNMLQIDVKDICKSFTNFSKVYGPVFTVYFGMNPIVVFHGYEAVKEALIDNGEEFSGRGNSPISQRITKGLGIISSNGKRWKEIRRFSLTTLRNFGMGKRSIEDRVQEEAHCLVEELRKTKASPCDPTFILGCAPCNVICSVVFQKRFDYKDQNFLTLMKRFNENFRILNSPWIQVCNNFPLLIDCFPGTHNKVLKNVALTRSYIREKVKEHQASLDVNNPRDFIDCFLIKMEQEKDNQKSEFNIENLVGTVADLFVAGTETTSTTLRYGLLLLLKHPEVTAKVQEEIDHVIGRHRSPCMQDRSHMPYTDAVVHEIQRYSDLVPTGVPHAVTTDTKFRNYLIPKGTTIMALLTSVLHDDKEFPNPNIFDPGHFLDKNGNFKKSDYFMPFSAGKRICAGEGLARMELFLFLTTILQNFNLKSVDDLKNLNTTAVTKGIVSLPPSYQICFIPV

[12] = molecular target: T2, Voltage-gated inwardly rectifying potassium channel KCNH2; experiment: Inhibition of human ERG
[13] = Clearance in beagle dog at 0.2 mg/kg, iv; format: ADME, organism-based, Canis lupus familiaris; conditions: in vivo
[14] = Half life in beagle dog at 0.2 mg/kg, iv; format: ADME, organism-based, Canis lupus familiaris; conditions: in vivo
[15] = Fraction unbound in guinea pig plasma; format: ADME, cell-free, Cavia porcellus
[16] = species on record: Homo sapiens; experiment: Selectivity for human TRPM8 over TRPA1 (unknown origin)
[17] = Volume of distribution at steady state in rat; format: ADME, organism-based; conditions: in vivo, read-out: Vdss
[18] = molecular target: T1, Transient receptor potential cation channel subfamily M member 8; experiment: Antagonist activity against human TRPM8 by single cell patch clamp electrophysiology
[19] = Oral absorption in rat at 2 mg/kg; format: ADME, organism-based; conditions: in vivo
[20] = system: Homo sapiens; experiment: Toxicity in human assessed as induction of nontolerated hot sensation localized to mouth, face, upper body, arms and hands at 900 mg administered as single dose during cold pressor test; format: organism-based; conditions: in vivo
[21] = Half life in rat; format: ADME, organism-based; conditions: in vivo
[22] = system: Canis familiaris; experiment: Unbound clearance in beagle dog at 0.2 mg/kg, iv; format: ADME, organism-based, Canis lupus familiaris; conditions: in vivo
[23] = Oral absorption in beagle dog at 20 mg/kg; format: ADME, organism-based, Canis lupus familiaris; conditions: in vivo
[24] = Oral bioavailability in rat at 2 mg/kg; format: ADME, organism-based; conditions: in vivo
[25] = Oral bioavailability in rat at 10 mg/kg; format: ADME, organism-based; conditions: in vivo
[26] = Oral bioavailability in beagle dog at 20 mg/kg; format: ADME, organism-based, Canis lupus familiaris; conditions: in vivo
[27] = Permeability in RRCK cells; format: ADME, cell-based, Canis lupus familiaris, MDCKII-LE; conditions: dog, MDCK; read-out: permeability
[28] = species on record: Cavia porcellus; experiment: Analgesic effect in guinea pig model of cold-induced bladder contractility assessed as maximum unbound concentration to causing therapeutic efficacy; format: functional
[29] = species on record: Rattus norvegicus; experiment: Drug metabolism in bile-duct cannulated rat assessed as formation of acyl glucuronide formation; format: ADME, organism-based; conditions: in vivo
[30] = species on record: Rattus norvegicus; experiment: Unbound clearance in rat; format: ADME, organism-based; conditions: in vivo
[31] = Fraction unbound in rat plasma; format: ADME, cell-free
[32] = Fraction unbound in dog plasma; format: ADME, cell-free, Canis lupus familiaris
[33] = species on record: Homo sapiens; experiment: Selectivity for human TRPM8 over TRPV1 (unknown origin)
[34] = Fraction unbound in human plasma; format: ADME, cell-free
[35] = system: Homo sapiens; experiment: Analgesic effect in human at 900 mg administered as single dose by cold pressor test; format: functional, organism-based
[36] = Oral absorption in rat at 10 mg/kg; format: ADME, organism-based; conditions: in vivo
[37] = Volume of distribution at steady state in beagle dog at 0.2 mg/kg, iv; format: ADME, organism-based, Canis lupus familiaris; conditions: in vivo, read-out: Vdss
[38] = system: Homo sapiens; experiment: Toxicity in human assessed as effect on core body temperature up to 900 mg administered as single dose during cold pressor test; format: organism-based; conditions: in vivo
[39] = Clearance in rat; format: ADME, organism-based; conditions: in vivo
[40] = Efflux ratio in MDCK cells; format: ADME, cell-based, Canis lupus familiaris; conditions: dog

Work on `C[C@H](c1ccc(F)cc1)N(Cc1ccc(F)c(C(=O)O)c1)C(=O)c1cnc2ccccc2c1` yielded an IC50 [1] of 3280 nM.
`C[C@H](c1ccc(F)cc1)N(Cc1cccc(C(=O)O)c1)C(=O)c1cc2ccccn2n1` gave a hepatocyte intrinsic clearance [2] of 23 µL/min/million cells, an IC50 [1] of 94 nM and a logD [3] of 0.9. For the same molecule, the microsomal CLint [4] was 325 µL/min/mg, the microsomal CLint [5] was 42 µL/min/mg and the Ki [6] was > 9180 nM.
With `O=C(O)c1cccc(CN(C(=O)c2cnc3ccccc3c2)[C@H](CO)c2ccccc2)c1` the IC50 [1] was > 6860 nM.
For `C[C@H](c1ccc(F)cc1)N(Cc1cccc(C(=O)O)c1)C(=O)c1ccc(Oc2ccccc2)cc1`, the IC50 [1] was > 6170 nM.
With `C[C@H](c1ccc(F)cc1F)N(Cc1cccc(C(=O)O)n1)C(=O)c1cc2ccccc2cn1` the hepatocyte intrinsic clearance [2] was < 2.2 µL/min/million cells, the IC50 [1] was 190 nM and the inhibition at 3 µM [7] was 0%. The inhibition at 3 µM [8] was 0%, the logD [3] was 0.4 and the microsomal CLint [4] was 31 µL/min/mg. It also gave a microsomal CLint [5] of 11 µL/min/mg, an inhibition at 3 µM [9] of 0% and an inhibition at 3 µM [10] of 0%. It also gave an inhibition at 3 µM [11] of 0%.
For `C[C@H](c1ccc(F)cc1)N(Cc1cccc(C(=O)O)c1)C(=O)c1cc2ccccc2nn1`, the IC50 [1] was 340 nM, the microsomal CLint [4] was 76 µL/min/mg and the microsomal CLint [5] was < 8 µL/min/mg.
`C[C@H](c1ccc(F)cc1)N(Cc1cc(C(=O)O)ccc1F)C(=O)c1cnc2ccccc2c1` showed an IC50 [1] of 446 nM.
`C[C@H](c1ccc(F)cc1)N(Cc1cccc(C(=O)O)c1)C(=O)c1cc2ccccc2s1` gave an IC50 [1] of 145 nM.
For `C[C@H](c1ccc(F)cc1)N(Cc1cccc(C(=O)O)c1)C(=O)c1cc2cc[nH]c2cn1`, the IC50 [1] was 951 nM.
`C[C@H](c1ccc(F)cc1)N(Cc1cccc(C(=O)O)c1)C(=O)c1cn2ccccc2n1` gave an IC50 [1] of 307 nM, a logD [3] of 0.6 and a microsomal CLint [4] of 113 µL/min/mg. For the same molecule, the Ki [6] was > 9180 nM.
For `CC(C)(c1ccc(F)cc1)N(Cc1cccc(C(=O)O)c1)C(=O)c1cnc2ccccc2c1`, the IC50 [1] was > 10000 nM.
For `C[C@H](c1ccc(F)cc1)N(Cc1cccc(-c2nn[nH]n2)c1)C(=O)c1cnc2ccccc2c1`, the IC50 [1] was 1610 nM.
In the case of `C[C@H](c1ccc(F)cc1)N(Cc1cccc(C(=O)O)c1)C(=O)c1cnc2ccccc2c1` [PF-05105679], the IC50 [12] is reported as > 30000 nM, the clearance [13] is reported as 31 mL/min/kg and the half-life [14] is reported as 3.9 h. For the same molecule, the fraction unbound [15] was 0.07, the Selectivity ratio [16] was > 100 and the hepatocyte intrinsic clearance [2] was < 15 µL/min/million cells. It also gave an IC50 [1] of 181 nM, a Vd [17] of 6.2 L/kg and an IC50 [18] of 103 nM. For the same molecule, the Fa [19] was 46%, the Activity [20] was “Toxic” and the inhibition at 3 µM [7] was 0%. The inhibition at 3 µM [8] was 0%, the half-life [21] was 3.6 h and the CL free [22] was 462 mL/min/kg. For the same molecule, the logD [3] was 1, the microsomal CLint [4] was 17 µL/min/mg and the Fa [23] was 100%. For the same molecule, the bioavailability [24] was 29%, the bioavailability [25] was 62% and the bioavailability [26] was 92%. For the same molecule, the microsomal CLint [5] was < 8 µL/min/mg, the Papp [27] was 6.8 ×10⁻⁶ cm/s and the fCmax [28] was 254 nM. The Drug metabolism [29] was “metabolite_detected”, the CL free [30] was 618 mL/min/kg and the fraction unbound [31] was 0.033. The fraction unbound [32] was 0.067, the Selectivity ratio [33] was > 100 and the fraction unbound [34] was 0.012. For the same molecule, the Activity [35] was “Active”, the Fa [36] was 100% and the Vd [37] was 7.4 L/kg. For the same molecule, the Activity [38] was “Non-toxic”, the inhibition at 3 µM [9] was 0% and the clearance [39] was 19.8 mL/min/kg. For the same molecule, the Ki [6] was > 15900 nM, the inhibition at 3 µM [10] was 0% and the efflux ratio [40] was 4.8. It also gave an inhibition at 3 µM [11] of 0%.
With `C[C@H](c1ccc(F)cc1)N(Cc1cccc(C(=O)O)c1)C(=O)c1cccc(-c2ccccc2)c1` the IC50 [1] was 837 nM.
In the case of `C[C@H](c1ccc(F)cc1)N(Cc1cccc(CC(=O)O)c1)C(=O)c1cnc2ccccc2c1`, the IC50 [1] is reported as > 3250 nM.
